“Also recorded” adds a separate entry of the source. Residues, ends and D or L forms follow the SMILES beside them. *: point of attachment. Cbz = O=C(OCc1ccccc1)*; CH2F = FC*
Legend:
[1] = test system: primary CD138+ human BM myeloma (BMM) cells; assay: Killing of primary myeloma cells co-cultured with HS-5 stromal cells; conditions: for reduction of live BMM cells: 24 hours ex vivo, PD 0332991 1-2 μM
CDK4/6 = conditions: mantle cell lymphoma and acute myeloid leukemia cells ex vivo; cited from earlier work
MM1.S cells = assay: Apoptosis pathway in myeloma cells (caspase/PARP cleavage, Bcl-2 family mRNA and protein, Smac release); assay type: cell-based, human
Method: Total RNA was isolated using the TRIzol reagent (Invitrogen). […] Reactions were carried out in triplicate in the ABI PRISM 7900 HT Sequence Detection System. The relative amount of products was determined by the comparative Ct method according to the manufacturer's instructions. Viable cells were obtained by Ficoll density centrifugation (GE Healthcare, Piscataway, N.J.). Cytosolic and mitochondrial fractions were isolated as described (Yang et al., 1997). Whole cells or purified mitochondria were lysed in a buffer containing 10 mM Tris-HCl, pH 7.5, 150 mM NaCl, 5 mM EDTA, 1% Triton X-100, and protease inhibitors. For detection of phosphorylated Stat3, cells were lysed in a buffer containing 20 mM Tris, pH 7.5, 150 mM NaCl, 1 mM EDTA, 1 mM EGTA, 1% Triton X-100, 2.5 mM sodium pyrophosphate, 1 mM β-glycerophosphate, 1 mM Na3VO4, and protease inhibitors. Immunoblotting was performed as described in Huang et al. (2004). Signals were developed with the SuperSignal West Femto Maximum Sensitivity Substrate (Pierce Biotechnology, Rockford, Ill.). For immunoprecipitation, lysate (50 μg of protein) was precleared with 20 μl of Protein G PLUS-agarose beads (Santa Cruz Biotechnology, Santa Cruz, Calif.) and incubated with rabbit anti-Bim, anti Bcl-XL (Cell signaling Technology), anti-Mcl1 (Santa Cruz), anti-Bak (Sigma) or mouse anti-Bcl-2 (DakoCytomation, Carpinteria, Calif.) overnight at 4° C. The immunocomplexes were collected by incubation with Protein G PLUS-agarose beads (Santa Cruz) and centrifugation. These immunocomplex samples were then analyzed by immunoblotting.

[2] = test system: at least thirty-eight other types of kinases, including CDK2; conditions: at concentrations below 5 μM, at least 38 other kinases; cited from earlier work
HMCLs, including MM1.S = assay: BrdU-uptake and DNA content (cell cycle) in human myeloma cell lines; assay type: cell-based; conditions: for proportion of cells in S phase: PD 0332991 0.25 μM 24 h
Method: Cells were incubated with 5-bromo-2-deoxyuridine (BrdU, 5 μg/ml; Sigma) at 37° C. for 30 min (HMCLs) or 16 h (BMM cells). Cells were fixed with 70% ethanol overnight at 4° C., incubated with 0.4 mg/ml pepsin for 20 min at room temperature and 2N HCl for 10 min at 37° C. Samples were washed with 50 mM sodium borate (pH 8.5) and then 0.1% BSA/PBS. To detect BrdU, cells were incubated with a FITC-conjugated anti-BrdU mouse mAb (Roche Diagnostics, Pleasanton, Calif.) for 30 min at room temperature. For DNA content analysis, cells were incubated further with 50 μg/ml propidium iodide and 100 U/ml ribonuclease A (Sigma) for 30 min at 37° C. Samples were analyzed by flow cytometry.

[3] = test system: myeloma, AML and solid tumor xenograft; conditions: cited from earlier work
[4] = test system: retinoblastoma (Rb)-positive tumor cells; conditions: cited from earlier work
Luc+GFP+MM1.S cells = assay: NOD/SCID xenograft human myeloma model (bioluminescence imaging); assay type: in vivo, NOD/SCID mice; conditions: for MMD in human myeloma cells vs mouse BM cells in vivo: bortezomib 0.25 mg/kg, with or without PD 0332991 150 mg/kg pretreatment; for tumor development (BLI): day 8, PD 0332991 150 mg/kg daily 3 days, bortezomib 0.25 mg/kg days 4 and 7
CDK4 and CDK6 [5] = conditions: cited from earlier work
[6] = test system: CAG NOD/SCID myeloma model; conditions: 150 mg/kg; by day 9; cited from earlier work
CDK4 and CDK6 [7] = assay: Phase I/II clinical trial in multiple myeloma; assay type: in vivo; conditions: within the tolerable dose in humans; preliminary data
[8] = test system: human osteoclast cultures; assay: Osteoclast formation from bone marrow cells of multiple myeloma patients; assay type: cell-based
Method: Non-adherent mononuclear bone marrow cells from multiple myeloma patients were cultured in the presence of macrophage colony stimulating factor (M-CSF) and Receptor Activator for Nuclear Factor κ[…] (RANKL) for three weeks.

[9] = test system: MM1.S and MM1.R human myeloma cell lines; assay: Cytotoxic killing of myeloma cell lines (viability, mitochondrial membrane depolarization)
IL-6Rα, gp130, Stat3 = assay: IL-6 signaling in myeloma cells (surface IL-6Rα, gp130, p-Stat3); assay type: cell-based, human; conditions: for expression of surface IL-6Rα (gp80): PD 0332991 0.25 μM, bortezomib 4 nM; for surface gp130: PD 0332991, bortezomib 4 nM, or both
Method: Viable cells were obtained by Ficoll density centrifugation (GE Healthcare, Piscataway, N.J.). Cytosolic and mitochondrial fractions were isolated as described (Yang et al., 1997). Whole cells or purified mitochondria were lysed in a buffer containing 10 mM Tris-HCl, pH 7.5, 150 mM NaCl, 5 mM EDTA, 1% Triton X-100, and protease inhibitors. For detection of phosphorylated Stat3, cells were lysed in a buffer containing 20 mM Tris, pH 7.5, 150 mM NaCl, 1 mM EDTA, 1 mM EGTA, 1% Triton X-100, 2.5 mM sodium pyrophosphate, 1 mM β-glycerophosphate, 1 mM Na3VO4, and protease inhibitors. Immunoblotting was performed as described in Huang et al. (2004). Signals were developed with the SuperSignal West Femto Maximum Sensitivity Substrate (Pierce Biotechnology, Rockford, Ill.).

## CC(=O)c1c(C)c2cnc(Nc3ccc(N4CCNCC4)cn3)nc2n(C2CCCC2)c1=O [PD 0332991, 6-acetyl-8-cyclopentyl-5-methyl-2-[5-piperazin-1-yl-pyridin-2-ylamino)-8H-pyrido[2,3-d]pyrimidin-7-one]
[1]
  reduction of live BMM cells: greater
[1]; PD 0332991 pretreatment 4 hours
  sensitization of BMM cells from bortezomib-refractory patients (MM10): sufficient to sensitize
[1]; PD 0332991 pretreatment 24 hours
  sensitization of other bortezomib-refractory BMM cells (MM 8, MM 9): susceptible to bortezomib killing
[1]; pretreatment 4-24 hours
  bortezomib killing after PD 0332991 pretreatment: markedly augmented
CDK4/6
  inhibition of CDK4/6: effectively inhibited
MM1.S cells
  activation of caspase-8 by bortezomib after prior PD 0332991 treatment: similarly augmented
MM1.S cells; following PD 0332991-induced G1 arrest
  Noxa mRNA and protein: no longer detectable
[2]
  activity against other kinases: does not cross react; also recorded: little or no activity
HMCLs, including MM1.S; MM1.S cells cultured with PD 0332991
  time G1 arrest and synchronous S phase entry were maintained in the absence of apoptosis: at least 6 days
HMCLs, including MM1.S; PD 0332991 0.25 μM
  G1 arrest: complete G1 arrest; also recorded: marked accumulation of G1 cells
HMCLs, including MM1.S; 12 hours after removal
  proportion of cells in S phase: 65%
HMCLs, including MM1.S; 18 hours after removal
  proportion of cells in S phase: 67%
[3]; after discontinuation of PD 0332991
  myeloma tumor growth upon discontinuation: resumed upon discontinuation
[3]; myeloma, AML and solid tumor xenograft models
  tumor growth: suppressed tumor growth
[4]
  anti-proliferative activity: potent anti-proliferative agent
Luc+GFP+MM1.S cells
  MMD in human myeloma cells vs mouse BM cells in vivo: augmented
  tumor development (BLI): only modestly reduced
CDK4 and CDK6 [5]; freshly isolated primary human BMM cells and HMCLs ex vivo, read-out: IC50, inhibition of CDK4 and CDK6
  IC50: 0.06 µM
CDK4 and CDK6 [5]; primary BMM cells and HMCLs
  cell cycle outcome of CDK4/CDK6 inhibition: exclusive G1 arrest unaccompanied by apoptosis; also recorded: exclusive G1 arrest in the absence of apoptosis
[6]
  tumor burden: reduced tumor burden profoundly
CDK4 and CDK6 [7]
  inhibition of CDK4 and CDK6 and tumor cell division in patients: completely inhibits
[8]; Homo sapiens, Osteoclast, 504 h, treatment for 3 weeks
  IC50: 0.05 µM
[8]; first week, but not second or third week
  time course of treatment on osteoclast formation: sufficient to inhibit osteoclast formation
[9]; MM1.R cells, 24 hours
  killing of Dex-resistant MM1.R cells by low dose bortezomib after PD 0332991: virtual eradication of cells
[9]; PD 0332991 24 h, then bortezomib at high dose (250 nM) for 1 h, analysed 6 h later
  bortezomib killing after prior G1 arrest: profoundly enhanced
[9]; bortezomib 2-6 nM added 24 or 48 hours after PD 0332991
  killing by low dose bortezomib added after PD 0332991 vs concurrently: greater
[9]; bortezomib 4 or 6 nM, continuous
  MMD and viability, bortezomib added upon removal of PD 0332991 vs unsynchronized cells: greater MMD and loss of viability
[9]; bortezomib pulse at 4 hours post PD 0332991 removal
  bortezomib killing during synchronous G1-S transition: augmented further
[9]; dexamethasone 5-50 nM
  MMD and cytotoxic killing by low dose dexamethasone after G1 arrest: augmented
IL-6Rα, gp130, Stat3
  Stat3 protein: reduction of Stat3 protein
  expression of surface IL-6Rα (gp80): virtually eliminated
  surface gp130: only modestly

## COC(=O)C[C@H](NC(=O)[C@H](C)NC(=O)[C@@H](NC(=O)OCc1ccccc1)C(C)C)C(=O)CF [ZVAD-FMK] (Cbz-Val-Ala-Asp(OMe)-CH2F)
MM1.S cells
  killing by PD-B in the presence of pan-caspase inhibitor: completely inhibited

## CC(C)C[C@H](NC(=O)[C@H](Cc1ccccc1)NC(=O)c1cnccn1)B(O)O [bortezomib]
[1]
  reduction of live BMM cells: greater
MM1.S cells; q-RT-PCR
  TRAIL mRNA: marginal increase
MM1.S cells; q-RT-PCR, bortezomib 4 nM 12 h, with or without PD 0332991 0.25 μM 24 h
  Bim and MCL-1 mRNAs: coordinately elevated
HMCLs, including MM1.S; bortezomib 6 nM alone
  cell cycle effect of bortezomib alone: striking loss of cells in the S phase
Luc+GFP+MM1.S cells
  MMD in human myeloma cells vs mouse BM cells in vivo: differentially induced
  tumor development (BLI): only modestly reduced
IL-6Rα, gp130, Stat3
  expression of surface IL-6Rα (gp80): did not vary
  surface gp130: only modestly
